Assay results reported in PMC9610410, “Pelargonium sidoides Root Extract: Simultaneous HPLC Separation, Determination, and Validation of Selected Biomolecules and Evaluation of SARS-CoV-2 Inhibitory Activity” (Pharmaceuticals, 2022).
Read-outs that look alike come from different tables or passages of the source.

How the values were obtained:
[1] = system: SARS-CoV-2; assay: microbe, parasite or virus in culture; format: cell-based; conditions: for IC50: Severe acute respiratory syndrome coronavirus 2, Vero C1008, SARS-CoV-2-induced cytopathic effect in Vero E6 cells; for Selectivity Index (SI): antiviral activity relative to cellular toxicity (CC50/IC50), Vero E6
[2] = MTT cytotoxicity assay against normal cell line (Vero E6); conditions: African green monkey, Vero E6 cells
[3] = system: SARS-CoV-2; set-up: method as in PMID 34214752; conditions: cited from earlier work; for IC50: SARS-CoV-2 in Vero E6 cells, positive controls reported by the same laboratory
[4] = in vitro; conditions: African green monkey
[5] = system: Vero E6 cells; conditions: positive controls reported by the same laboratory; cited from earlier work

Compound | IC50 [1] [µM] | Selectivity Index (SI) [1] | CC50 [2] [µM] | IC50 [3] [µM] | CC50 [4] [µM] | CC50 [5] [µM] | Selectivity Index (SI) ([3]; positive controls)
Oc1cc(O)c2c(c1)O[C@H](c1ccc(O)c(O)c1)[C@@H](O)C2 [Catechin, (+)−catechin] | 58.55 ± 0.088 | 0.9 | 52.76 ± 0.079 | – | – | – | –
CCN(CC)CCCC(C)Nc1ccnc2cc(Cl)ccc12 (stereo not shown) [Chloroquine] | – | – | – | 22.7 | – | – | –
O=C(O)c1cc(O)c(O)c(O)c1 [Gallic acid, 3,4,5-trihydroxybenzoic acid] | 96.41 ± 0.03 | 4.6 | – | – | 439.7 ± 0.065 | – | –
CCN(CCO)CCCC(C)Nc1ccnc2cc(Cl)ccc12 (stereo not shown) [Hydroxychloroquine] | – | – | – | 32.8 | – | 356 | 10.85
COc1cc2ccc(=O)oc2cc1O [Scopoletin, 7-hydroxy-6-methoxycoumarin] | 17.8 ± 0.91 | 14.22 | – | – | 253.1 ± 0.45 | – | –
COc1c(O)cc2oc(=O)ccc2c1OC [Umckalin, 7-hydroxy-5,6-dimethoxycoumarin] | 311.6 ± 0.043 | 0.5 | 164.1 ± 0.54 | – | – | – | –
